# PubChem BioAssay AID328 (DTP/NCI, 2004)
# Several values for one entry are separate records, joined by “and”; a condition that tells them apart may be missing. Equal entries are not always repeated. Toxic doses and inconclusive results are not listed.
# Tested on: BDF1 mice, P388 leukemia ip, median survival T/C
# Test: NCI In Vivo Anticancer Drug Screen. Data for tumor model P388 Leukemia (intraperitoneal) in B6D2F1 (BDF1) mice
# Settings: endpoint: median survival time, higher = longer survival
# Method in brief: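 Steps: implant the tumour, treat one group with compound and another with vehicle, record survival, then divide treated by control.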
# [1] = dose: 400.0 mg/kg/injection, schedule: Q04DX003 (ip), vehicle: saline
# [2] = dose: 100.0 mg/kg/injection, schedule: Q04DX003 (ip), vehicle: saline
# [3] = dose: 200.0 mg/kg/injection, schedule: Q04DX003 (ip), vehicle: saline
# [4] = dose: 50.0 mg/kg/injection, schedule: Q01DX009 (ip), vehicle: saline with Tween-80
# [5] = dose: 100.0 mg/kg/injection, schedule: Q04DX003 (ip), vehicle: saline with Tween-80
# [6] = dose: 200.0 mg/kg/injection, schedule: Q04DX003 (ip), vehicle: saline with Tween-80
smiles,measurement,setting,value
CN1CCN(CCNc2ccc(CO)c3sc4ccccc4c(=O)c23)CC1,T/C,"dose: 25.0 mg/kg/injection, schedule: Q01DX009 (ip), vehicle: Klucel (hydroxypropylcellulose) (HPC)",120 % of control
same,T/C,"dose: 50.0 mg/kg/injection, schedule: Q01DX009 (ip), vehicle: Klucel (hydroxypropylcellulose) (HPC)",109 % of control
same,T/C,"dose: 100.0 mg/kg/injection, schedule: Q01DX009 (ip), vehicle: Klucel (hydroxypropylcellulose) (HPC)",151 % of control
CC(/C=N\N=C(N)N)=N/N=C(N)N,T/C,"dose: 5.0 mg/kg/injection, schedule: Q01DX010 (ip), vehicle: saline",90 % of control
same,T/C,"dose: 10.0 mg/kg/injection, schedule: Q01DX010 (ip), vehicle: saline",90 % of control and 100 % of control
same,T/C,"dose: 20.0 mg/kg/injection, schedule: Q01DX010 (ip), vehicle: saline",100 % of control
same,T/C,"dose: 44.0 mg/kg/injection, schedule: Q01DX009 (ip), vehicle: saline",150 % of control
same,T/C,[1],95 % of control
NC(N)=NCCCCCC(=O)O,T/C,[2],104 % of control
same,T/C,[3],109 % of control
same,T/C,"dose: 400.0 mg/kg/injection, schedule: Q01DX001 (ip), vehicle: saline",87 % of control
CCC1(C(C)Br)OC2=C(CC(C#N)(C#N)C(C#N)(C#N)C2)O1 (stereo unspecified),T/C,"dose: 12.0 mg/kg/injection, schedule: Q01DX001 (ip), vehicle: Klucel (hydroxypropylcellulose) (HPC)",116 % of control
same,T/C,"dose: 25.0 mg/kg/injection, schedule: Q01DX001 (ip), vehicle: Klucel (hydroxypropylcellulose) (HPC)",104 % of control
same,T/C,"dose: 50.0 mg/kg/injection, schedule: Q01DX001 (ip), vehicle: Klucel (hydroxypropylcellulose) (HPC)",100 % of control
O=[N+]([O-])c1ccccc1N/N=C\c1c(Cl)n(-c2ccccc2)c2ccccc12,T/C,"dose: 100.0 mg/kg/injection, schedule: Q04DX002 (ip), vehicle: Klucel (hydroxypropylcellulose) (HPC)",90 % of control
same,T/C,"dose: 200.0 mg/kg/injection, schedule: Q04DX002 (ip), vehicle: Klucel (hydroxypropylcellulose) (HPC)",99 % of control
same,T/C,"dose: 400.0 mg/kg/injection, schedule: Q04DX002 (ip), vehicle: Klucel (hydroxypropylcellulose) (HPC)",115 % of control
CCCCCCCCCCCCCCC(F)C(=O)OCC1OC(CO)(OC2OC(CO)C(O)C(O)C2O)C(O)C1O (stereo unspecified),T/C,"dose: 25.0 mg/kg/injection, schedule: Q01DX009 (ip), vehicle: saline with Tween-80",116 % of control
same,T/C,[4],108 % of control
same,T/C,"dose: 50.0 mg/kg/injection, schedule: Q04DX003 (ip), vehicle: saline with Tween-80",108 % of control
same,T/C,[5],91 % of control
O=[N+]([O-])c1cccc(CS(=O)(=O)c2ccccc2)c1-c1c(CS(=O)(=O)c2ccccc2)cccc1[N+](=O)[O-],T/C,"dose: 100.0 mg/kg/injection, schedule: Q04DX003 (ip), vehicle: saline sonified",95 % of control
same,T/C,"dose: 200.0 mg/kg/injection, schedule: Q04DX003 (ip), vehicle: saline sonified",100 % of control
same,T/C,"dose: 400.0 mg/kg/injection, schedule: Q04DX003 (ip), vehicle: saline sonified",86 % of control
CCCCCCC1OCC2(CO1)COC(CCCCCC)OC2 (stereo unspecified),T/C,[5],90 % of control
same,T/C,[6],86 % of control
CC1(O)Cn2c(nc3nccnc32)S1 (stereo unspecified),T/C,"dose: 25.0 mg/kg/injection, schedule: Q01DX009 (ip), vehicle: saline",107 % of control
same,T/C,"dose: 50.0 mg/kg/injection, schedule: Q01DX009 (ip), vehicle: saline",115 % of control
same,T/C,"dose: 50.0 mg/kg/injection, schedule: Q04DX003 (ip), vehicle: saline",108 % of control
same,T/C,[2],100 % of control
CNc1c(F)c(C#N)c(F)c(F)c1C#N,T/C,[4],119 % of control
CCCC(=O)N(C)C(C)C(=O)OC1CC(=O)N(C)c2cc(cc(OC)c2Cl)C/C(C)=C/C=CC(OC)C2(O)CC(OC(=O)N2)C(C)C2OC12C (stereo unspecified),T/C,"dose: 0.1 micrograms/kg/injection, schedule: Q01DX009 (ip), vehicle: saline + alcohol",97 % of control
same,T/C,"dose: 0.2 micrograms/kg/injection, schedule: Q01DX009 (ip), vehicle: saline + alcohol",93 % of control
same,T/C,"dose: 0.4 micrograms/kg/injection, schedule: Q01DX009 (ip), vehicle: saline + alcohol",104 % of control
same,T/C,"dose: 0.8 micrograms/kg/injection, schedule: Q01DX009 (ip), vehicle: saline + alcohol",96 % of control and 112 % of control
same,T/C,"dose: 0.8 micrograms/kg/injection, schedule: Q01DX009 (ip), vehicle: saline",104 % of control
same,T/C,"dose: 1.6 micrograms/kg/injection, schedule: Q01DX009 (ip), vehicle: saline + alcohol",102 % of control and 107 % of control
same,T/C,"dose: 1.6 micrograms/kg/injection, schedule: Q01DX009 (ip), vehicle: saline",105 % of control
same,T/C,"dose: 3.1 micrograms/kg/injection, schedule: Q01DX009 (ip), vehicle: saline + alcohol",88 % of control and 111 % of control
same,T/C,"dose: 3.1 micrograms/kg/injection, schedule: Q01DX009 (ip), vehicle: saline",105 % of control
same,T/C,"dose: 6.2 micrograms/kg/injection, schedule: Q01DX009 (ip), vehicle: saline + alcohol",92 % of control and 114 % of control
same,T/C,"dose: 6.2 micrograms/kg/injection, schedule: Q01DX009 (ip), vehicle: saline",96 % of control
same,T/C,"dose: 12.5 micrograms/kg/injection, schedule: Q01DX009 (ip), vehicle: saline + alcohol",113 % of control
same,T/C,"dose: 12.5 micrograms/kg/injection, schedule: Q01DX009 (ip), vehicle: saline",110 % of control
same,T/C,"dose: 25.0 micrograms/kg/injection, schedule: Q01DX009 (ip), vehicle: saline + alcohol",97 % of control
same,T/C,"dose: 25.0 micrograms/kg/injection, schedule: Q01DX009 (ip), vehicle: saline",107 % of control
same,T/C,"dose: 25.0 nanograms/kg/injection, schedule: Q## X009 (ip), vehicle: other",94 % of control
same,T/C,"dose: 50.0 micrograms/kg/injection, schedule: Q01DX009 (ip), vehicle: saline + alcohol",105 % of control and 122 % of control
same,T/C,"dose: 50.0 micrograms/kg/injection, schedule: Q01DX009 (ip), vehicle: saline",116 % of control
same,T/C,"dose: 100.0 micrograms/kg/injection, schedule: Q01DX009 (ip), vehicle: saline + alcohol",111 % of control
same,T/C,"dose: 200.0 micrograms/kg/injection, schedule: Q01DX009 (ip), vehicle: saline + alcohol",111 % of control and 117 % of control
same,T/C,"dose: 200.0 nanograms/kg/injection, schedule: Q## X009 (ip), vehicle: other",88 % of control
same,T/C,"dose: 400.0 nanograms/kg/injection, schedule: Q## X009 (ip), vehicle: other",102 % of control
CCOC(=O)c1cn(COC)c2nc(SC)nc(NC(C)=O)c2c1=O,T/C,"dose: 100.0 mg/kg/injection, schedule: Q01DX001 (ip), vehicle: saline with Tween-80",105 % of control
same,T/C,"dose: 200.0 mg/kg/injection, schedule: Q01DX001 (ip), vehicle: saline with Tween-80",90 % of control
same,T/C,"dose: 400.0 mg/kg/injection, schedule: Q01DX001 (ip), vehicle: saline with Tween-80",90 % of control
NC(=O)NOCC(N)C(=O)O (stereo unspecified),T/C,[2],104 % of control
same,T/C,[3],100 % of control
same,T/C,[1],104 % of control
CC(=O)OC1CC(OC2C(O)CC(OC3C(O)CC(OC4CCC5(C)C(CCC6C5CCC5(C)C(C7=CC(=O)OC7)C(O)CC65O)C4)OC3C)OC2C)OC(C)C1OC1OC(CO)C(O)C(O)C1O (stereo unspecified),T/C,"dose: 12.5 mg/kg/injection, schedule: Q01DX010 (ip), vehicle: carboxymethylcellulose (CMC)",109 % of control
same,T/C,"dose: 12.5 mg/kg/injection, schedule: Q04DX003 (ip), vehicle: Klucel (hydroxypropylcellulose) (HPC)",110 % of control
same,T/C,"dose: 25.0 mg/kg/injection, schedule: Q01DX010 (ip), vehicle: carboxymethylcellulose (CMC)",95 % of control
same,T/C,"dose: 25.0 mg/kg/injection, schedule: Q04DX003 (ip), vehicle: Klucel (hydroxypropylcellulose) (HPC)",120 % of control
CCC1(O)CC2CN(CCc3c([nH]c4ccccc34)C(C(=O)OC)(c3cc4c(cc3OC)N(C)C3C(O)(C(=O)NCCO)C(O)C5(CC)C=CCN6CCC43C65)C2)C1 (stereo unspecified),T/C,"dose: 500.0 micrograms/kg/injection, schedule: Q04DX003 (ip), vehicle: saline",173 % of control
same,T/C,"dose: 1000.0 micrograms/kg/injection, schedule: Q04DX003 (ip), vehicle: saline",182 % of control
same,T/C,"dose: 2000.0 micrograms/kg/injection, schedule: Q04DX003 (ip), vehicle: saline",219 % of control
same,T/C,"dose: 4000.0 micrograms/kg/injection, schedule: Q04DX003 (ip), vehicle: saline",286 % of control
CCC1CN2CCc3cc(O)c(O)cc3C2CC1CC1NCCc2c1[nH]c1ccc(O)cc21 (stereo unspecified),T/C,"dose: 1.0 mg/kg/injection, schedule: Q01DX009 (ip), vehicle: Klucel (hydroxypropylcellulose) (HPC)",161 % of control
same,T/C,"dose: 2.0 mg/kg/injection, schedule: Q01DX009 (ip), vehicle: Klucel (hydroxypropylcellulose) (HPC)",163 % of control
C=CCCCCCCCCCCCCCC,T/C,"dose: 145.0 mg/kg/injection, schedule: Q01DX010 (ip), vehicle: saline",104 % of control
same,T/C,"dose: 220.0 mg/kg/injection, schedule: Q01DX010 (ip), vehicle: saline",113 % of control
same,T/C,"dose: 330.0 mg/kg/injection, schedule: Q01DX010 (ip), vehicle: saline",104 % of control
same,T/C,"dose: 500.0 mg/kg/injection, schedule: Q01DX010 (ip), vehicle: saline",118 % of control
[Cl][Rh][Cl].[NH-]c1ccc(S(N)(=O)=O)cc1.[NH-]c1ccc(S(N)(=O)=O)cc1.[NH-]c1ccc(S(N)(=O)=O)cc1.[NH-]c1ccc(S(N)(=O)=O)cc1,T/C,[5],108 % of control
same,T/C,[6],103 % of control
same,T/C,"dose: 400.0 mg/kg/injection, schedule: Q04DX003 (ip), vehicle: saline with Tween-80",107 % of control
